PMC9486951, “Tetramate Derivatives by Chemoselective Dieckmann Ring Closure of threo-Phenylserines and Their Antibacterial Activity” (The Journal of Organic Chemistry, 2022)
Converted amounts (≈) assume the structure as drawn. Like-named read-outs stand apart in the source and are kept apart here.

Tests used:
[1] = tested on: methicillin-resistant Staphylococcus aureus (MRSA); assay: MIC determination by broth dilution assay against MRSA; type: cell-based
Experimental: (§1) With access to these derivatives routinely available, an assessment of their antibacterial activity was made by measuring minimum inhibitory concentration (MIC) values (Table S6) against two example organisms, methicillin-resistant Staphylococcus aureus (MRSA) and E. coli. […] By contrast, a more polar substituent at the C7-position (pyran 12t) compromised the antibacterial activity (125 μg/mL). […] Compound 13b had the same activity as 12g at 1.00 μg/mL. Overall, increasing lipophilicity corresponded to higher potency against MRSA. […]
(§2) Screening of compounds were performed by Oxford Antibiotic Group, Austria. For MIC determination by broth dilution assay, the samples were tested in a primary 96 well plates screening assay, in duplicate. The compounds were diluted in Mueller Hinton Broth (MHB) for bacterial screening to a stock solution of 1000 µg/mL, serial diluted and overlaid with a microbe solution in a concentration of 10^4 CFU/ml. […]

E. coli = assay: MIC determination by broth dilution assay against E. coli; type: cell-based
Experimental: as §1, §2

[2] = Staphylococcus aureus, MRSA, Table S5, against S. aureus, read-out: MIC
[3] = Staphylococcus aureus, MRSA, broth dilution, read-out: MIC against MRSA

Row | SMILES | antibacterial activity against MRSA (in words) [1] | MIC [1, 2] [µg/mL] | MIC ([1]; Table S6) [µg/mL] | MIC [1, 3] [µg/mL] | MIC ([1]; Staphylococcus aureus, MRSA, Table S6, read-out: MIC) [µg/mL] | MIC ([1]; Table S5, against S. aureus) [µg/mL] | antibacterial activity against E. coli (in words) (E. coli)
1 | CC(C)(C)[C@@H]1O[C@H](c2ccccc2)[C@H]2C(O)=C(C(=O)Nc3ccc(C(F)(F)F)cc3Cl)C(=O)N21 (racemic) [12i] | high activities | 0.49 (≈ 0.99 µM) | 0.49 (≈ 0.99 µM) | – | – | – | –
2 | CC(C)(C)[C@@H]1O[C@H](c2ccccc2)[C@H]2C(O)=C(C(=O)Nc3ccc(Cl)cc3C(F)(F)F)C(=O)N21 (racemic) [12j] | – | 3.9 (≈ 7.88 µM) | 3.9 (≈ 7.88 µM) | – | – | – | –
3 | Cc1ccc(NC(=O)C2=C(O)[C@@H]3[C@@H](c4ccccc4)O[C@@H](C(C)(C)C)N3C2=O)c(C)c1 (racemic) [12k] | – | 3.9 (≈ 9.27 µM) | 3.9 (≈ 9.27 µM) | – | – | – | –
4 | Cc1cc(F)ccc1NC(=O)C1=C(O)[C@@H]2[C@@H](c3ccccc3)O[C@@H](C(C)(C)C)N2C1=O (racemic) [12l] | high activities | 1 (≈ 2.36 µM) | 1.0 (≈ 2.36 µM) | – | – | – | –
5 | CCCCCCc1ccc(NC(=O)C2=C(O)[C@@H]3[C@@H](c4ccccc4)O[C@@H](C(C)(C)C)N3C2=O)cc1 (racemic) [12m] | – | 0.49 (≈ 1.03 µM) | 0.49 (≈ 1.03 µM) | 0.49 (≈ 1.03 µM) | – | – | –
6 | CC(C)(C)[C@@H]1O[C@H](c2ccccc2)[C@H]2C(O)=C(C(=O)NC3CCCCC3)C(=O)N21 (racemic) [12n] | – | 1 (≈ 2.51 µM) | 1.0 (≈ 2.51 µM) | 1 (≈ 2.51 µM) | – | – | –
7 | CC(C)(C)[C@@H]1O[C@H](c2ccccc2)[C@H]2C(O)=C(C(=O)NC3CCCCCC3)C(=O)N21 (racemic) [12o] | – | 1 (≈ 2.42 µM) | 1.0 (≈ 2.42 µM) | 1 (≈ 2.42 µM) | – | – | –
8 | CCCCCCNC(=O)C1=C(O)[C@@H]2[C@@H](c3ccccc3)O[C@@H](C(C)(C)C)N2C1=O (racemic) [12p] | – | 3.9 (≈ 9.74 µM) | 3.9 (≈ 9.74 µM) | 3.9 (≈ 9.74 µM) | – | – | –
9 | CCCCCCCCCNC(=O)C1=C(O)[C@@H]2[C@@H](c3ccccc3)O[C@@H](C(C)(C)C)N2C1=O (racemic) [12q] | – | 0.49 (≈ 1.11 µM) | 0.49 (≈ 1.11 µM) | 0.49 (≈ 1.11 µM) | – | – | –
10 | CCCCCCCCCCCCNC(=O)C1=C(O)[C@@H]2[C@@H](c3ccccc3)O[C@@H](C(C)(C)C)N2C1=O (racemic) [12r] | – | 0.49 (≈ 1.01 µM) | 0.49 (≈ 1.01 µM) | 0.49 (≈ 1.01 µM) | – | – | –
11 | CC(C)(C)[C@@H]1O[C@H](c2ccccc2)[C@H]2C(O)=C(C(=O)Nc3ccc(C4CCCCC4)cc3)C(=O)N21 (racemic) [12s] | – | 1 (≈ 2.11 µM) | 1.0 (≈ 2.11 µM) | 1 (≈ 2.11 µM) | – | – | –
12 | CC(C)(C)[C@@H]1O[C@H](c2ccccc2)[C@H]2C(O)=C(C(=O)NC3CCOCC3)C(=O)N21 (racemic) [12t] | – | 125 (≈ 312 µM) | 125 (≈ 312 µM) | 125 (≈ 312 µM) | – | – | –
13 | CC(C)(C)[C@@H]1O[C@H](c2ccccc2)[C@H]2C(O)=C(C(=O)NCc3ccccc3)C(=O)N21 (racemic) [12u] | – | 15.6 (≈ 38.4 µM) | 15.6 (≈ 38.4 µM) | 15.6 (≈ 38.4 µM) | – | – | –
14 | CC(C)(C)NC(=O)C1=C(O)[C@@H]2[C@@H](c3ccccc3)O[C@@H](C(C)(C)C)N2C1=O (racemic) [12v] | comparable activity with the hexyl 12p | 3.9 (≈ 10.5 µM) | 3.9 (≈ 10.5 µM) | – | – | – | –
15 | Cc1ccc([C@H]2O[C@@H](C(C)(C)C)N3C(=O)C(C(=O)Nc4ccc(Cl)cc4C)=C(O)[C@H]23)cc1 (racemic) [13b] | – | – | – | 1 (≈ 2.2 µM) | 1 (≈ 2.2 µM) | 1.0 (≈ 2.2 µM) | –
16 | CCOC(=O)C1=C(O)[C@@H]2[C@@H](c3ccc(C)cc3)O[C@@H](C(C)(C)C)N2C1=O [10b] | no activity | – | – | – | – | – | no activity
